From patent US9346811B2, “6,7-dihydro-pyrazolo[1,5-a]pyrazin-4-ylamine derivatives useful as inhibitors of beta-secretase (BACE)” (JANSSEN PHARMACEUTICA NV, priority 2011, dated 2016)
Structures can show the parent of a compound that is named as a salt. Where two headings read alike, the source gives them in different places.

Experiments:
[1] = system: Aβ42 produced and secreted into the medium of human neuroblastoma SKNBE2 cells; assay: Cellular αlisa assay in SKNBE2 cells, Aβ42; type: cell-based; conditions: for IC50: Homo sapiens, SKNBE2, 18 h, read-out: Cellular αlisa assay in SKNBE2 cells Aβ42 pIC50 (converted)
Procedure: (§1) Cellular αlisa Assay in SKNBE2 Cells
(§2) In two αlisa assays the levels of Aβtotal and Aβ42 produced and secreted into the medium of human neuroblastoma SKNBE2 cells are quantified. The assay is based on the human neuroblastoma SKNBE2 expressing the wild type Amyloid Precursor Protein (hAPP695). The compounds are diluted and added to these cells, incubated for 18 hours and then measurements of Aβ42 and Aβtotal are taken. Aβtotal and Aβ42 are measured by sandwich αlisa. αlisa is a sandwich assay using biotinylated antibody AbN/25 attached to streptavidin coated beads and antibody Ab4G8 or cAb42/26 conjugated acceptor beads for the detection of Aβtotal and Aβ42 respectively. In the presence of Aβtotal or Aβ42, the beads come into close proximity. The excitation of the Donor beads provokes the release of singlet oxygen molecules that triggers a cascade of energy transfer in the Acceptor beads, resulting in light emission. Light emission is measured after 1 hour incubation (excitation at […] and emission at 615 nm).
(§3) A best-fit curve is fitted by a minimum sum of squares method to the plot of % Controlmin versus compound concentration.

[2] = system: Aβtotal produced and secreted into the medium of human neuroblastoma SKNBE2 cells; assay: Cellular αlisa assay in SKNBE2 cells, Aβtotal; type: cell-based; conditions: for IC50: Homo sapiens, SKNBE2, 18 h, read-out: Cellular αlisa assay in SKNBE2 cells Aβtotal pIC50 (converted)
Procedure: as §1, §2, §3

[3] = system: brain levels of soluble Aβ42; assay: In vivo efficacy: brain Aβ42 lowering (ELISA); parameters: species or system mouse; conditions: 30 mg/kg p.o., 4 h. after administration
Description: (§4) To determine whether acute administration of an Aβ42 peptide lowering agent would reduce Aβ peptide levels in vivo, non-transgenic rodents, e.g. mice or rats were used. Animals treated with the Aβ peptide lowering agent were examined and compared to those untreated or treated with vehicle and brain levels of soluble Aβ42 and total Aβ were quantitated by standard techniques, for example, using ELISA. Treatment periods varied from hours (h) to days and were adjusted based on the results of the Aβ42 lowering once a time course of onset of effect could be established.
(§5) A typical protocol for measuring Aβ42 lowering in vivo is shown but it is only one of many variations that could be used to optimize the levels of detectable Aβ. For example, Aβ peptide lowering compounds were formulated in 20% hydroxypropyl β cyclodextrin. The Aβ peptide lowering agents were administered as a single oral dose (p.o.) or a single subcutaneous dose (s.c.) to overnight fasted animals. After a certain time, usually 2 or 4 h (as indicated in Table 7), the animals were sacrificed and Aβ42 levels were analysed.
(§6) Blood was collected by decapitation and exsanguinations in EDTA-treated collection tubes. Blood was centrifuged at 1900 g for 10 minutes (min) at 4° C. and the plasma recovered and flash frozen for later analysis. The brain was removed from the cranium and hindbrain. The cerebellum was removed and the left and right hemisphere were separated. The left hemisphere was stored at −18° C. for quantitative analysis of test compound levels. The right hemisphere was rinsed with phosphate-buffered saline (PBS) buffer and immediately frozen on dry ice and stored at −80° C. until homogenization for biochemical assays.
(§7) Mouse brains from non-transgenic animals were resuspended in 8 volumes of 0.4% DEA (diethylamine)/50 mM NaCl containing protease inhibitors (Roche-11873580001 or 04693159001) per gram of tissue, e.g. for 0.158 g brain, add 1.264 ml of 0.4% DEA. All samples were homogenized in the FastPrep-24 system (MP Biomedicals) using lysing matrix D (MPBio #6913-100) at 6 m/s for 20 seconds. Homogenates were centrifuged at 221.300×g for 50 min. The resulting high speed supernatants were then transferred to fresh eppendorf tubes. Nine parts of supernatant were neutralized with 1 part 0.5 M Tris-HCl pH 6.8 and used to quantify Aβtotal and Aβ42.
(§8) To quantify the amount of Aβtotal and Aβ42 in the soluble fraction of the brain homogenates, Enzyme-Linked-Immunosorbent-Assays were used. Briefly, the standards (a dilution of synthetic Aβ1-40 and […], Bachem) were prepared in 1.5 ml Eppendorf tube in Ultraculture, with final concentrations ranging from 10000 to 0.3 pg/ml. The samples and standards were co-incubated with HRPO-labelled N-terminal antibody for Aβ42 detection and with the biotinylated mid-domain antibody 4G8 for Aβtotal detection. 50 μl of conjugate/sample or conjugate/standards mixtures were then added to the antibody-coated plate (the capture antibodies selectively recognize the C-terminal end of Aβ42, antibody JRF/cAβ42/26, for Aβ42 detection and the N-terminus of Aβ, antibody JRF/rAβ/2, for Aβtotal detection). The plate was allowed to incubate overnight at 4° C. in order to allow formation of the antibody-amyloid complex. Following this incubation and subsequent wash steps the ELISA for Aβ42 quantification was finished by addition of Quanta Blu fluorogenic peroxidase substrate according to the manufacturer's instructions (Pierce Corp., Rockford, Il.). A reading was performed after 10 to 15 min (excitation 320 nm/emission 420 nm).
In this model at least 20% Aβ42 lowering compared to untreated animals would be advantageous.

brain levels of total Aβ = assay: In vivo efficacy: brain Aβtotal lowering (ELISA); parameters: species or system mouse; conditions: 30 mg/kg p.o., 4 h. after administration
Description: as §4, §5, §6, §7, §8
For Aβtotal detection, a Streptavidine-Peroxidase-Conjugate was added, followed 60 min later by an additional wash step and addition of Quanta Blu fluorogenic peroxidase substrate according to the manufacturer's instructions (Pierce Corp., Rockford, Il.). A reading was performed after 10 to 15 min (excitation 320 nm/emission 420 nm).

[4] = biological target: recombinant BACE1 protein (Homo sapiens, UniProt P56817); assay: Biochemical FRET based assay; conditions: recombinant BACE1 1 μg/ml, 120 min, pH 5.0; for IC50: read-out: Biochemical FRET based assay pIC50 (converted)
Description: Biochemical FRET Based Assay
This assay is a Fluorescence Resonance Energy Transfer Assay (FRET) based assay. The substrate for this assay is an APP derived 13 amino acids peptide that contains the ‘Swedish’ Lys-Met/Asn-Leu mutation of the amyloid precursor protein (APP) β-secretase cleavage site. This substrate also contains two fluorophores: (7-methoxycoumarin-4-yl)acetic acid (Mca) is a fluorescent donor with excitation wavelength at 320 nm and emission at 405 nm and 2,4-Dinitrophenyl (Dnp) is a proprietary quencher acceptor. […] Upon cleavage by BACE1, the fluorophore Mca is separated from the quenching group Dnp, restoring the full fluorescence yield of the donor. The increase in fluorescence is linearly related to the rate of proteolysis (Koike H et al. J. Biochem. 1999, 126, 235-242). Briefly in a 384-well format recombinant BACE1 protein in a final concentration of 1 μg/ml is incubated for 120 min at room temperature with 10 μm substrate in incubation buffer (40 mM Citrate buffer pH 5.0, 0.04% PEG, 4% DMSO) in the absence or presence of compound. Next the amount of proteolysis is directly measured by fluorescence measurement at T=0 and T=120 (excitation at 320 nm and emission at 405 nm).

[5] = SKNBE2 cells expressing hAPP695, 18 hours incubation

Sequence of recombinant BACE1 protein (P56817 46-501): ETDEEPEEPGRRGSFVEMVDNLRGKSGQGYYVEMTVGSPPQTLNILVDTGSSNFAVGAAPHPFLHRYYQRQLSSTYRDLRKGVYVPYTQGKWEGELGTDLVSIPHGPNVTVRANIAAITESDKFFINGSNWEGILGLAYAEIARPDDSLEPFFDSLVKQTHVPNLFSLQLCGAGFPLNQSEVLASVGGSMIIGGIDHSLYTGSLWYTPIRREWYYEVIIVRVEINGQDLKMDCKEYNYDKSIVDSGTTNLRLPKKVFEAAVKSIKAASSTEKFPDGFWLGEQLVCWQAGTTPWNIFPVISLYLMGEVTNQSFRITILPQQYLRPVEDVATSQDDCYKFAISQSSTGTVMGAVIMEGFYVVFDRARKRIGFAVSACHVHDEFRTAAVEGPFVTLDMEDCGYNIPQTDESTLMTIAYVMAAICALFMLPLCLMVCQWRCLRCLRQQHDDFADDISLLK

Row | Cellular αlisa assay in SKNBE2 cells Aβ42 pIC50 [1, 5] | Cellular αlisa assay in SKNBE2 cells Aβtotal pIC50 [2, 5] | IC50 [4] [nM] | Biochemical FRET based assay pIC50 [4] | Structure (SMILES) | also measured
1 | 8.66 | 8.69 |  |  | CC1(c2cccc(NC(=O)c3ccc(C#N)cn3)c2)Cn2nccc2C(N)=N1 (single isomer, unassigned) [Compound 7, (R*)-5-cyano-pyridine-2-carboxylic acid [3-(4-amino-6-methyl-6,7-dihydro-pyrazolo[1,5-a]pyrazin-6-yl)-phenyl]-amide] | Aβ42 (% Ctrl)_Mean [3]: 88 % Ctrl; Aβtotal (% Ctrl)_Mean (brain levels of total Aβ): 101 % Ctrl
2 | 7.94 | 8.01 | 28.2 |  | CC1(c2cccc(NC(=O)c3ncc(Cl)cc3Cl)c2)Cn2nc(C(F)(F)F)cc2C(N)=N1 (single isomer, unassigned) [Compound 11, (R*)-3,5-dichloro-pyridine-2-carboxylic acid [3-(4-amino-6-methyl-2-trifluoromethyl-6,7-dihydro-pyrazolo[1,5-a]pyrazin-6-yl)-phenyl]-amide] | Aβ42 (% Ctrl)_Mean [3]: 89 % Ctrl; Aβtotal (% Ctrl)_Mean (brain levels of total Aβ): 84 % Ctrl
3 | 7.17 | 7.21 | 25.7 |  | NC1=NC(c2cc(NC(=O)c3ccc(F)cn3)ccc2F)(C(F)F)Cn2nccc21 (single isomer, unassigned) [Compound 22, (R*)-5-fluoro-pyridine-2-carboxylic acid [3-(4-amino-6-difluoromethyl-6,7-dihydro-pyrazolo[1,5-a]pyrazin-6-yl)-4-fluoro-phenyl]-amide] | 
4 | 5.58 | 5.61 |  | 4.97 | COc1cnc(C(=O)Nc2cccc(C3(C)Cn4nc(C(F)(F)F)cc4C(N)=N3)c2)cn1 (single isomer, unassigned) [Compound 31] | 
5 |  |  | 72.4 |  | COc1cnc(C(=O)Nc2ccc(F)c([C@]3(C)Cn4ncc(F)c4C(N)=N3)c2)cn1 [Compound 13, (R)-5-methoxy-pyrazine-2-carboxylic acid [3-(4-amino-3-fluoro-6-methyl-6,7-dihydro-pyrazolo[1,5-a]pyrazin-6-yl)-4-fluoro-phenyl]-amide] | IC50 [1, 5]: 6.76 nM; IC50 [2, 5]: 5.5 nM
6 |  |  | 49 |  | C[C@@]1(c2cc(NC(=O)c3ccc(C#N)cn3)ccc2F)Cn2nc(C#N)cc2C(N)=N1 [Compound 26, (R)-5-cyano-pyridine-2-carboxylic acid [3-(4-amino-2-cyano-6-methyl-6,7-dihydro-pyrazolo[1,5-a]pyrazin-6-yl)-4-fluoro-phenyl]-amide] | IC50 [1, 5]: 1.48 nM; IC50 [2, 5]: 1.45 nM
7 | 7.83 | 7.78 |  | 7.23 | Cc1nc(C(=O)Nc2ccc(F)c(C3(C)Cn4ncc(F)c4C(N)=N3)c2)co1 (stereo not drawn) [Compound 34] | 
8 | 7.33 | 7.30 |  | 6.91 | Cc1nc(C(=O)Nc2ccc(F)c(C3(C)Cn4ncc(F)c4C(N)=N3)c2)c(C(F)(F)F)o1 (stereo not drawn) [Compound 35] | 
9 | 7.56 | 7.53 |  | 7.04 | Cc1nc(C(=O)Nc2ccc(F)c(C3(C)Cn4ncc(F)c4C(N)=N3)c2)c(C)o1 (stereo not drawn) [Compound 36] | 
10 | 6.03 | 6.07 |  | 5.86 | COc1cnc(C(=O)Nc2ccc(F)c(C3(C)Cn4ncc(Cl)c4C(N)=N3)c2)cn1 (stereo not drawn) [Compound 37] | 
11 | 6.16 | 6.22 |  | 6.03 | CC1(c2cc(NC(=O)c3ccc(F)cn3)ccc2F)Cn2ncc(Cl)c2C(N)=N1 (stereo not drawn) [Compound 38] | 
12 | 8.61 | 8.59 |  | 7.39 | CC1(c2cc(NC(=O)c3ccc(Cl)cn3)ccc2F)Cn2nc(C(F)F)cc2C(N)=N1 (stereo not drawn) [Compound 39] | 
13 | 8.42 | 8.37 |  | 7.28 | CC1(c2cc(NC(=O)c3ccn(C(F)F)n3)ccc2F)Cn2nc(C(F)F)cc2C(N)=N1 (stereo not drawn) [Compound 40] | 
14 | 8.02 | 7.99 |  | 7.12 | Cc1nn2c(c1F)C(N)=NC(C)(c1cc(NC(=O)c3ccn(C(F)F)n3)ccc1F)C2 (stereo not drawn) [Compound 42] | 
15 | 8.72 | 8.70 |  | 7.53 | Cc1nc(C(=O)Nc2ccc(F)c(C3(C)Cn4nc(C#N)cc4C(N)=N3)c2)co1 (stereo not drawn) [Compound 43] | 

Row | Structure (SMILES) | Cellular αlisa assay in SKNBE2 cells Aβ42 pIC50 [1, 5] | Cellular αlisa assay in SKNBE2 cells Aβtotal pIC50 [2, 5] | IC50 [4] [nM] | Biochemical FRET based assay pIC50 [4] | also measured
16 | C[C@@]1(c2cccc(-c3cncc(Cl)c3)c2)Cn2nccc2C(N)=N1 [Compound 1, (R)-6-[3-(5-chloro-pyridin-3-yl)-phenyl]-6-methyl-6,7-dihydro-pyrazolo[1,5-a]pyrazin-4-ylamine trifluoroacetate salt] |  |  | 525 |  | IC50 [1]: 93.3 nM; IC50 [2]: 100 nM
